Results as given in paper PMC7794939, “Discovery of Monoacylglycerol Lipase (MAGL) Inhibitors Based on a Pharmacophore-Guided Virtual Screening Study” (Molecules, 2020).

Assays:
Format in all cases: biochemical
Human recombinant MAGL [1] = molecular target: T1, Human recombinant MAGL (Homo sapiens, UniProt Q99685); experiment: MAGL inhibition after preincubation of compound with enzyme (reversibility); conditions: preincubated with the enzyme for 0, 30 and 60 min before adding the substrate
T1 construct: purchased Cayman Chemical (Ann Arbor, MI, USA)
T1 sequence (Q99685 1-303): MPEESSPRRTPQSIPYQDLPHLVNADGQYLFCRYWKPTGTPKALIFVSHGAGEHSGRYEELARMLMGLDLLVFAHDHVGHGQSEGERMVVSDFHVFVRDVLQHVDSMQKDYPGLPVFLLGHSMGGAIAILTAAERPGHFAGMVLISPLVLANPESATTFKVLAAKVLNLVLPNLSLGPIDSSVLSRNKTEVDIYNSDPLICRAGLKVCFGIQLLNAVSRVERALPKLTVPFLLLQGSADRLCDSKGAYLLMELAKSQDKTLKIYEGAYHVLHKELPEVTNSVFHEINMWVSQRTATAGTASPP
Procedure: (§1) Furthermore, with the aim of establishing whether the mechanism of inhibition was reversible or irreversible, the effects of preincubation on the inhibitory activity of compounds VS1 and VS2 were evaluated. In this assay, the compounds were preincubated with the enzyme for 0, 30 and 60 min before adding the substrate to start the enzymatic reaction. An irreversible inhibitor should show a higher potency after longer incubation times, whereas a reversible inhibitor should display a constant inhibition potency that is independent from the incubation time. […] Taken together, these experimental studies, aimed at better characterizing the mode of action of compounds VS1 and VS2, further supported the reliability of the binding mode predicted for the two ligands.
Human recombinant MAGL and 4-nitrophenyl acetate substrate (4-NPA) were bought from Cayman Chemical (Ann Arbor, MI, USA). […] After the reaction had progressed for 30 min, absorbance values were measured by using a VictorX3 instrument (PerkinElmer, Waltham, MA, USA) at 405 nm. […] To remove possible false positive results, a blank analysis was performed for each compound concentration and the final absorbance results were obtained detracting the absorbance produced by the presence of all the components except MAGL in the same conditions.

Human recombinant MAGL [2] = molecular target: T1, Human recombinant MAGL; experiment: MAGL inhibition with or without the thiol-containing agent DTT
Procedure: as §1
Human recombinant MAGL and 4-nitrophenyl acetate substrate (4-NPA) were bought from Cayman Chemical (Ann Arbor, MI, USA). The reversible compound 17b reported by Granchi et al. in 2016 was synthesized in our laboratory and used as reference compound [19]. Compound 3l was synthesized in our laboratory according to the procedure reported by Aida et al. and used as reference compound. The IC50 values were produced in 96-well microtiter plates. The MAGL reaction was carried out at rt at a final volume of 200 µL in 10 mM Tris buffer, pH 7.2, containing 1 mM EDTA and 0.1 mg/mL BSA. A total of 150 µL of 4-NPA 133.3 µM was added to 10 µL of DMSO containing the appropriate amount of compound. The reaction was started by adding 40 µL of MAGL (11 ng/well) in such a way that the assay was linear over 30 min. After the reaction had progressed for 30 min, absorbance values were measured by using a VictorX3 instrument (PerkinElmer, Waltham, MA, USA) at 405 nm. Two more reactions were carried out: one reaction containing no compounds and the second one containing neither enzyme nor inhibitor. To remove possible false positive results, a blank analysis was performed for each compound concentration and the final absorbance results were obtained detracting the absorbance produced by the presence of all the components except MAGL in the same conditions.

Human recombinant MAGL [3] = molecular target: T1, Human recombinant MAGL; experiment: MAGL enzyme inhibition assay (4-NPA substrate, absorbance 405 nm); conditions: 30 min, rt, pH 7.2
Procedure: Human recombinant MAGL and 4-nitrophenyl acetate substrate (4-NPA) were bought from Cayman Chemical (Ann Arbor, MI, USA). […] The IC50 values were produced in 96-well microtiter plates. The MAGL reaction was carried out at rt at a final volume of 200 µL in 10 mM Tris buffer, pH 7.2, containing 1 mM EDTA and 0.1 mg/mL BSA. […] The reaction was started by adding 40 µL of MAGL (11 ng/well) in such a way that the assay was linear over 30 min. […] Two more reactions were carried out: one reaction containing no compounds and the second one containing neither enzyme nor inhibitor.

[4] = assayed in the absence of DTT, read-out: IC50 in the absence of DTT
[5] = assayed in the presence of 10 µM DTT, read-out: IC50 in the presence of DTT

| Compound | Effect of preincubation time on inhibitory potency (reversible or irreversible mechanism) (Human recombinant MAGL [1]) | IC50 (Human recombinant MAGL [2]; [4]) [µM] | IC50 (Human recombinant MAGL [2]; [5]) [µM] | IC50 (Human recombinant MAGL [3]) [µM] |
| --- | --- | --- | --- | --- |
| O=C(c1ccco1)N1CCN(C2=CC(=O)N(c3cccc(Cl)c3)C2=O)CC1 [VS2] | did not show any significant increase in inhibitory potency at longer incubation times | 47.5 | 49.5 | 48.9 ± 4.2 |
| O=C(Nc1nnc(C2CC(=O)N(c3ccccc3)C2)s1)c1cccc(Br)c1 (stereo not shown) [VS6] | – | – | – | > 200 |
| CC(C)c1ccc(OCC(=O)Nc2ccc(-c3nc4ccccc4c(=O)o3)cc2)cc1 [VS3] | – | – | – | 79.4 ± 6.3 |
| O=C(c1ccco1)N1CCN(C2CC(=O)N(c3cccc(Cl)c3)C2=O)CC1 (stereo not shown) [VS4] | – | – | – | 138 ± 11 |
| Cc1cc(=O)[nH]c(-c2ccc(NS(=O)(=O)c3ccc(F)cc3Cl)cc2)n1 [VS1] | did not show any significant increase in inhibitory potency at longer incubation times | 35.4 | 34.1 | 34.7 ± 2.4 |
| O=C(c1ccc(Cl)cc1)C1CCN(C(=O)c2cccc(O)c2)CC1 [Compound 17b, reference compound] | – | – | – | 0.9 ± 0.08 |
| O=C1c2ccc(-c3nc4ccccc4c(=O)o3)cc2C(=O)N1Cc1ccc(Cl)cc1 [VS5] | – | – | – | > 200 |
